Counter-ions that a name gives are not always drawn.
How the values were obtained:
Type in all cases: in vivo
C57BL/6J mice [1] = assay: Open field test of mice; details: open field 6 min, gavage one month, 3.33 mg/kg, x ± SE, hydrochloride
Experimental: (§1) The mice were kept in a light, temperature and humidity controlled room with 6 mice per cage, and were allowed to eat and drink ad libitum: temperature 21±2° C. humidity 50±10%, 12 h/12 h light and dark cycle (light on at 20:00, light off at 8:00). All animal experiments were conducted in accordance with the guidelines on experiment animal welfare and use issued by NIH.
(§2) The mice were adapted for one week after their arrival, and then entered the experiment.
(§3) The normal group was given the same volume of purified water by gavage, and the gavage doses of other groups are shown in the table in the Experimental results. The mice were administrated by gavage at a fixed time (9:00) every morning, with a gavage volume of 0.1 mL·10g^−1, for one month. The behavioral test was performed 1 h after the last gavage.
The test was carried out in an open field box with a length of 50 cm, a width of 50 cm and a depth of 50 cm. The bottom surface of the open field box was equally divided into 9 squares, in which the middle area was the central area, and the remaining areas were the peripheral areas. The bottom and four sides of the open field box were all white. The test was carried out in a quiet and weak red light environment. At the beginning, the mice were placed in the center of the open field box to observe their activities within 6 minutes. The total movement distance, the movement distance in the central area and the number of standing upright of the mice were recorded.

C57BL/6J mice [2] = assay: Forced swimming test of mice; details: gavage daily for one month, 3.33 mg/kg, x ± SE, hydrochloride
Experimental: as §1, §2, §3
During forced swimming, all animals were put into a plexiglass cylinder containing water with a deep of 20 cm at 23±1° C., individually. After 15 minutes, they were transferred to a dry environment at 30° C. for 30 minutes (pre-experiment). After 24 hours, the mice were put into the plexiglass cylinder again for 5 minutes (formal experiment). During this period, the mice were recorded with a video camera. After each mouse was tested, the water was changed and the cylinder was cleaned. SMART3.0 software was used to record the number of static suspension and the latency of static suspension.

C57BL/6J mice [3] = assay: Tail suspension test of mice; details: gavage daily for one month, 3.33 mg/kg, last 4 min of 6 min, x ± SE, hydrochloride
Experimental: as §1, §2, §3
In the tail suspension test, mice were hung on the tail suspension device using medical tape at a position ⅓ from the tip of the tail, in an upright position with the head being about 30 cm from the ground and facing straight onto a camera, which was used to record the immobility time during the tail suspension test of the mice in each group. The test lasted for 6 minutes, and the last 4 minutes were used to calculate the immobility time during the tail suspension test of mice. Immobility time is defined as the time when the mouse stops struggling and is still in a hanging state.

With `CNCCC(Oc1ccc(C(F)(F)F)cc1)c1ccccc1` (stereo not drawn) [FXT, Fluoxetine hydrochloride] the “Number of standing uprights” value (C57BL/6J mice [1]) was 29.20 ± 2.133, the Total movement distance (C57BL/6J mice [1]) was 18435 ± 950.6 and the “Movement distance in the central area” value (C57BL/6J mice [1]; listed as fluoxetine) was “no significant change”. For the same compound, the “Number of standing uprights” value (C57BL/6J mice [1]; listed as fluoxetine) was “no significant change”, the Total movement distance (C57BL/6J mice [1]; listed as fluoxetine) was “no significant change” and the “Number of static suspension” value (C57BL/6J mice [2]) was 54.64 ± 2.704. The “Number of static suspension” value (C57BL/6J mice [2]; listed as fluoxetine) was “significantly less than that of the control group”, the “Immobility time during tail suspension” value (C57BL/6J mice [3]) was 59.62 ± 6.270 s and the “Immobility time during tail suspension” value (C57BL/6J mice [3]; listed as fluoxetine) was “significantly less than that of the control group”.

Reference: patent US20230125425A1, “TRADITIONAL CHINESE MEDICINE EXTRACT COMPOSITION WITH FUNCTION OF REGULATING DEPRESSIVE EMOTION AND PREPARATION METHOD AND TRADITIONAL CHINESE MEDICINE PREPARATION THEREOF” (CHENLAND NUTRITIONALS, INC., priority 2019, published 2023)
